Patent US11053204B2, “Pyrimidinyloxy benzene derivatives as herbicides” (FMC Corporation, priority 2015, dated 2021)

Tests used:
Type in all cases: in vivo
[1] = system: barnyardgrass (Echinochloa crus-galli); test: Test A postemergence, visual injury rating; conditions: 0 is no effect, 100 is complete control
Procedure, shortened: (§1)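 Visual 0–100 rating (100 = complete control) taken about 10 d post-treatment relative to untreated checks. Preemergence: directed soil spray on sown loam/sand pots. Postemergence: seedlings 2–10 cm, 1–2 leaf. Non-phytotoxic solvent formulation with surfactant.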

[2] = system: large (Lg) crabgrass (Digitaria sanguinalis); test: Test A postemergence, visual injury rating; conditions: 0 is no effect, 100 is complete control
Procedure, shortened: as §1

[3] = system: wheat (Triticum aestivum); test: Test A postemergence, visual injury rating; conditions: 0 is no effect, 100 is complete control
Procedure, shortened: as §1

corn (Zea mays) [4] = test: Test A postemergence, visual injury rating; conditions: 0 is no effect, 100 is complete control
Procedure, shortened: as §1

[5] = system: pigweed (Amaranthus retroflexus); test: Test A postemergence, visual injury rating; conditions: 0 is no effect, 100 is complete control
Procedure, shortened: as §1

[6] = system: morningglory (Ipomoea spp.); test: Test A postemergence, visual injury rating; conditions: 500 g ai/ha, 0 is no effect, 100 is complete control
Procedure, shortened: as §1

[7] = system: velvetleaf (Abutilon theophrasti); test: Test A postemergence, visual injury rating; conditions: 0 is no effect, 100 is complete control
Procedure, shortened: as §1

[8] = system: giant foxtail (Setaria faberii); test: Test A postemergence, visual injury rating; conditions: 0 is no effect, 100 is complete control
Procedure, shortened: as §1

[9] = system: barnyardgrass (Echinochloa crus-galli); test: Test A preemergence, visual injury rating; conditions: 0 to 100 scale (0 no effect, 100 complete control)
Procedure, shortened: as §1

[10] = system: large (Lg) crabgrass (Digitaria sanguinalis); test: Test A preemergence, visual injury rating; conditions: 0 to 100 scale (0 no effect, 100 complete control)
Procedure, shortened: as §1

[11] = system: wheat (Triticum aestivum); test: Test A preemergence, visual injury rating; conditions: 0 to 100 scale (0 no effect, 100 complete control)
Procedure, shortened: as §1

corn (Zea mays) [12] = test: Test A preemergence, visual injury rating; conditions: 0 to 100 scale (0 no effect, 100 complete control)
Procedure, shortened: as §1

[13] = system: pigweed (Amaranthus retroflexus); test: Test A preemergence, visual injury rating; conditions: 0 to 100 scale (0 no effect, 100 complete control)
Procedure, shortened: as §1

[14] = system: morningglory (Ipomoea spp.); test: Test A preemergence, visual injury rating; conditions: 500 g ai/ha, 0 to 100 scale (0 no effect, 100 complete control)
Procedure, shortened: as §1

[15] = system: velvetleaf (Abutilon theophrasti); test: Test A preemergence, visual injury rating; conditions: 0 to 100 scale (0 no effect, 100 complete control)
Procedure, shortened: as §1

[16] = system: giant foxtail (Setaria faberii); test: Test A preemergence, visual injury rating; conditions: 0 to 100 scale (0 no effect, 100 complete control)
Procedure, shortened: as §1

[17] = system: barnyardgrass (Echinochloa crus-galli); test: Test B flooded paddy test, plant response rating; conditions: 250 g ai/ha; Flood; scale of 0 to 100 where 0 is no effect and 100 is complete control; 13 to 15 days
Procedure, shortened: (§2)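 Under a constant 3 cm flood, test compounds went directly into the paddy water. Following 13 to 15 days of greenhouse growth, treated species and controls were compared by eye.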

[18] = system: ducksalad (Heteranthera limosa); test: Test B flooded paddy test, plant response rating; conditions: 250 g ai/ha; Flood; scale of 0 to 100 where 0 is no effect and 100 is complete control; 13 to 15 days
Procedure, shortened: as §2

rice (Oryza sativa) = test: Test B flooded paddy test, plant response rating; conditions: 250 g ai/ha; Flood; scale of 0 to 100 where 0 is no effect and 100 is complete control; 13 to 15 days
Procedure, shortened: as §2

[19] = system: sedge, umbrella (small-flower umbrella sedge, Cyperus difformis); test: Test B flooded paddy test, plant response rating; conditions: 250 g ai/ha; Flood; scale of 0 to 100 where 0 is no effect and 100 is complete control; 13 to 15 days
Procedure, shortened: as §2

SMILES | Barnyardgrass plant response rating (0 to 100 scale) ([1]; 1000 g ai/ha) | Crabgrass, Large plant response rating (0 to 100 scale) ([2]; 1000 g ai/ha) | Wheat plant response rating (0 to 100 scale) ([3]; 1000 g ai/ha) | Corn plant response rating (0 to 100 scale) (corn (Zea mays) [4]; 1000 g ai/ha) | Pigweed plant response rating (0 to 100 scale) ([5]; 1000 g ai/ha) | Velvetleaf plant response rating (0 to 100 scale) ([7]; 1000 g ai/ha) | Foxtail, Giant plant response rating (0 to 100 scale) ([8]; 1000 g ai/ha) | Barnyardgrass plant response rating ([9]; 1000 g ai/ha) | Crabgrass, Large plant response rating ([10]; 1000 g ai/ha) | Wheat plant response rating ([11]; 1000 g ai/ha) | Corn plant response rating (corn (Zea mays) [12]; 1000 g ai/ha) | Pigweed plant response rating ([13]; 1000 g ai/ha) | Velvetleaf plant response rating ([15]; 1000 g ai/ha) | Foxtail, Giant plant response rating ([16]; 1000 g ai/ha) | also measured
O=C(NCC(F)(F)F)c1ccccc1Oc1ncc(Br)cn1 [Compound 27] |  |  |  |  |  |  |  |  |  |  |  |  |  |  | Barnyardgrass plant response rating (0 to 100 scale) ([1]; 500 g ai/ha): 0; Crabgrass, Large plant response rating (0 to 100 scale) ([2]; 500 g ai/ha): 0; Wheat plant response rating (0 to 100 scale) ([3]; 500 g ai/ha): 0; Corn plant response rating (0 to 100 scale) (corn (Zea mays) [4]; 500 g ai/ha): 0; Pigweed plant response rating (0 to 100 scale) ([5]; 500 g ai/ha): 0; Morningglory plant response rating (0 to 100 scale) [6]: 0; Velvetleaf plant response rating (0 to 100 scale) ([7]; 500 g ai/ha): 0; Foxtail, Giant plant response rating (0 to 100 scale) ([8]; 500 g ai/ha): 0; Barnyardgrass plant response rating ([9]; 500 g ai/ha): 0; Crabgrass, Large plant response rating ([10]; 500 g ai/ha): 0; Wheat plant response rating ([11]; 500 g ai/ha): 0; Corn plant response rating (corn (Zea mays) [12]; 500 g ai/ha): 0; Pigweed plant response rating ([13]; 500 g ai/ha): 0; Morningglory plant response rating [14]: 0; Velvetleaf plant response rating ([15]; 500 g ai/ha): 0; Foxtail, Giant plant response rating ([16]; 500 g ai/ha): 0
CON=C(C)c1ccccc1Oc1ncc(Cl)cn1 [Compound 55] | 0 | 0 | 0 | 0 | 0 | 10 | 10 | 0 | 0 | 0 | 0 | 0 | 0 | 0 | 
CC(=NOC(C)C)c1ccccc1Oc1ncc(Cl)cn1 [Compound 56] | 50 | 40 | 10 | 30 | 60 | 100 | 70 | 90 | 100 | 0 | 0 | 100 | 90 | 100 | Plant response rating, Barnyardgrass [17]: 0; Plant response rating, Ducksalad [18]: 0; Plant response rating, Rice (rice (Oryza sativa)): 0; Plant response rating, Sedge, Umbrella [19]: 0
